Consider one compound from article PMC5218480 (PLoS ONE, 2017).

The subject of the assay is MV-4-11 cells. The assay can be described thus: Gene expression microarray analysis (Affymetrix PrimeView) and GSEA. The assay is classed as cell-based, human. More on the design: RFU PODN (11730768_x_at) / Fold change /veh PODN (11730768_x_at) / RFU LINC00158 (11744669_a_at) / Fold change /veh LINC00158 (11744669_a_at) / RFU DUSP10 (11751237_a_at) / Fold change /veh DUSP10 (11751237_a_at) / RFU ID3 (11757404_x_at) / Fold change /veh ID3 (11757404_x_at) / RFU PLEKHG5 (11737974_s_at) / Fold change /veh PLEKHG5 (11737974_s_at) / RFU LRRC4B (11730491_at) / Fold change /veh LRRC4B (11730491_at) / RFU GIMAP4 (11747438_a_at) / Fold change /veh GIMAP4 (11747438_a_at) / RFU KRT8 (11758183_x_at) / Fold change /veh KRT8 (11758183_x_at) / RFU CNN1 (11734310_a_at) / Fold change /veh CNN1 (11734310_a_at) / RFU VPS37D (11726825_at) / Fold change /veh VPS37D (11726825_at) / RFU C10orf10 (11716522_x_at) / Fold change /veh C10orf10 (11716522_x_at) / RFU KIR2DL2 /// KIR2DL4 /// KIR2DL5A /// KIR2DL5B /// KIR2DS1 /// KIR2DS2 /// KIR2DS3 /// KIR2DS4 /// KIR3DL3 /// KIR3DL3 /// KIR3DS1 (11738374_at) / Fold change /veh KIR2DL2 /// KIR2DL4 /// KIR2DL5A /// KIR2DL5B /// KIR2DS1 /// KIR2DS2 /// KIR2DS3 /// KIR2DS4 /// KIR3DL3 /// KIR3DL3 /// KIR3DS1 (11738374_at) / RFU C1QL1 (11718748_at) / Fold change /veh C1QL1 (11718748_at) / RFU TMPRSS4 (11747572_a_at) / Fold change /veh TMPRSS4 (11747572_a_at) / RFU HAMP (11756126_x_at) / Fold change /veh HAMP (11756126_x_at) / RFU RNFT2 (11725882_a_at) / Fold change /veh RNFT2 (11725882_a_at) / RFU NR4A2 (11747474_a_at) / Fold change /veh NR4A2 (11747474_a_at) / RFU ABCC12 (11746883_a_at) / Fold change /veh ABCC12 (11746883_a_at) / RFU TMEM136 (11760407_x_at) / Fold change /veh TMEM136 (11760407_x_at) / RFU CLDN22 /// WWC2 (11732394_at) / Fold change /veh CLDN22 /// WWC2 (11732394_at) / RFU HLA-DPB1 (11760878_x_at) / Fold change /veh HLA-DPB1 (11760878_x_at) / RFU SPINT1 (11716480_a_at) / Fold change /veh SPINT1 (11716480_a_at) / RFU GAP43 (11754022_s_at) / Fold change /veh GAP43 (11754022_s_at) / RFU A4GNT (11735810_at) / Fold change /veh A4GNT (11735810_at) / RFU PRB3 (11715151_x_at) / Fold change /veh PRB3 (11715151_x_at) / RFU TUBB4B (11761932_at) / Fold change /veh TUBB4B (11761932_at) / RFU CAPN14 (11732068_a_at) / Fold change /veh CAPN14 (11732068_a_at) / RFU TMCC2 (11721928_a_at) / Fold change /veh TMCC2 (11721928_a_at) / RFU IRGQ (11745062_a_at) / Fold change /veh IRGQ (11745062_a_at) / RFU FAM174B (11720279_a_at) / Fold change /veh FAM174B (11720279_a_at) / RFU TMPRSS4 (11748680_a_at) / Fold change /veh TMPRSS4 (11748680_a_at) / RFU FAM212B (11763350_a_at) / Fold change /veh FAM212B (11763350_a_at) / RFU PLEKHG5 (11743358_a_at) / Fold change /veh PLEKHG5 (11743358_a_at) / RFU ZSCAN30 (11745921_a_at) / Fold change /veh ZSCAN30 (11745921_a_at) / RFU CMKLR1 (11741424_a_at) / Fold change /veh CMKLR1 (11741424_a_at) / RFU LOC101060620 /// MAPK8IP1 (11723275_at) / Fold change /veh LOC101060620 /// MAPK8IP1 (11723275_at) / RFU SPTSSB (11747773_x_at) / Fold change /veh SPTSSB (11747773_x_at) / RFU PRSS12 (11739890_at) / Fold change /veh PRSS12 (11739890_at) / RFU BIN1 (11741810_x_at) / Fold change /veh BIN1 (11741810_x_at) / RFU WNT11 (11732464_a_at) / Fold change /veh WNT11 (11732464_a_at) / RFU C10orf10 (11716521_a_at) / Fold change /veh C10orf10 (11716521_a_at) / RFU C5orf56 (11738089_at) / Fold change /veh C5orf56 (11738089_at) / RFU CYB561 (11721691_x_at) / Fold change /veh CYB561 (11721691_x_at) / RFU ANKRD19P (11752326_a_at) / Fold change /veh ANKRD19P (11752326_a_at) / RFU OR2T12 /// OR2T33 /// OR2T8 (11738714_s_at) / Fold change /veh OR2T12 /// OR2T33 /// OR2T8 (11738714_s_at) / RFU VCAN (11748164_a_at) / Fold change /veh VCAN (11748164_a_at) / RFU JSRP1 (11732532_at) / Fold change /veh JSRP1 (11732532_at) / RFU KRTAP10-11 (11738290_x_at) / Fold change /veh KRTAP10-11 (11738290_x_at) / RFU MYO3A (11730013_a_at) / Fold change /veh MYO3A (11730013_a_at) / RFU EBF3 (11725865_a_at) / Fold change /veh EBF3 (11725865_a_at) / RFU CAMK2N1 (11719241_x_at) / Fold change /veh CAMK2N1 (11719241_x_at) / RFU C5orf56 (11738088_a_at) / Fold change /veh C5orf56 (11738088_a_at) / RFU OLFML3 (11715873_a_at) / Fold change /veh OLFML3 (11715873_a_at) / RFU LOC100653217 /// NTM (11731650_a_at) / Fold change /veh LOC100653217 /// NTM (11731650_a_at) / RFU MAPK11 (11762145_a_at) / Fold change /veh MAPK11 (11762145_a_at) / RFU FIZ1 (11724087_x_at) / Fold change /veh FIZ1 (11724087_x_at) / RFU OASL (11726364_x_at) / Fold change /veh OASL (11726364_x_at) / RFU SOX15 (11748057_x_at) / Fold change /veh SOX15 (11748057_x_at) / RFU CD79A (11719716_a_at) / Fold change /veh CD79A (11719716_a_at) / RFU HIST1H1D (11736915_at) / Fold change /veh HIST1H1D (11736915_at) / RFU CASKIN2 (11723855_a_at) / Fold change /veh CASKIN2 (11723855_a_at) / RFU LOC730098 (11760151_x_at) / Fold change /veh LOC730098 (11760151_x_at) / RFU OR4N2 (11742367_at) / Fold change /veh OR4N2 (11742367_at) / RFU PRRT2 (11749266_a_at) / Fold change /veh PRRT2 (11749266_a_at) / RFU SNX32 (11753110_a_at) / Fold change /veh SNX32 (11753110_a_at) / RFU CDHR5 (11726645_a_at) / Fold change /veh CDHR5 (11726645_a_at) / RFU RCAN1 (11760418_a_at) / Fold change /veh RCAN1 (11760418_a_at) / RFU FAM167A (11723789_a_at) / Fold change /veh FAM167A (11723789_a_at) / RFU FAM26E (11764081_at) / Fold change /veh FAM26E (11764081_at) / RFU ISYNA1 (11749810_s_at) / Fold change /veh ISYNA1 (11749810_s_at) / RFU ACY1 (11761880_at) / Fold change /veh ACY1 (11761880_at) / RFU 11764098_at / Fold change /veh 11764098_at / RFU SAMD14 (11745864_x_at) / Fold change /veh SAMD14 (11745864_x_at) / RFU NPB (11741838_a_at) / Fold change /veh NPB (11741838_a_at) / RFU TMPRSS6 (11731388_a_at) / Fold change /veh TMPRSS6 (11731388_a_at) / RFU KRTAP10-2 (11738614_at) / Fold change /veh KRTAP10-2 (11738614_at) / RFU ARHGAP8 /// PRR5-ARHGAP8 (11727945_x_at) / Fold change /veh ARHGAP8 /// PRR5-ARHGAP8 (11727945_x_at) / RFU KRTAP5-7 /// NADSYN1 (11734609_at) / Fold change /veh KRTAP5-7 /// NADSYN1 (11734609_at) / RFU RASL12 (11751679_a_at) / Fold change /veh RASL12 (11751679_a_at) / RFU CDKN2B (11736163_a_at) / Fold change /veh CDKN2B (11736163_a_at) / RFU PRF1 (11729649_at) / Fold change /veh PRF1 (11729649_at) / RFU, ZNF638 /// ZNF638-IT1 / Fold change vs veh, ZNF638 /// ZNF638-IT1 / RFU, PANK3 / Fold change vs veh, PANK3 / RFU, SH3YL1 / Fold change vs veh, SH3YL1 / RFU, ZEB2 / Fold change vs veh, ZEB2 / RFU, NRIP1 / Fold change vs veh, NRIP1 / RFU, PTTG1IP / Fold change vs veh, PTTG1IP / RFU, CAPN2 / Fold change vs veh, CAPN2 / RFU, MED14 / Fold change vs veh, MED14 / RFU, SNORA58 / Fold change vs veh, SNORA58 / RFU, C1orf63 / Fold change vs veh, C1orf63 / RFU, LRRFIP1 / Fold change vs veh, LRRFIP1 / RFU, NDUFAF7 / Fold change vs veh, NDUFAF7 / RFU, SLC12A2 / Fold change vs veh, SLC12A2 / RFU, IBTK / Fold change vs veh, IBTK / RFU, ESF1 / Fold change vs veh, ESF1 / Fold change vs veh, TMEM50B / RFU, TAOK1 / Fold change vs veh, TAOK1 / RFU, ACBD3 / Fold change vs veh, ACBD3 / RFU, TMA16 / Fold change vs veh, TMA16 / RFU, RWDD3 / Fold change vs veh, RWDD3 / RFU, BCAT1 / Fold change vs veh, BCAT1 / RFU, EDEM3 / Fold change vs veh, EDEM3 / RFU, TMEM33 / Fold change vs veh, TMEM33 / RFU, WDR75 / Fold change vs veh, WDR75 / RFU, AHCTF1 / Fold change vs veh, AHCTF1 / RFU, TFRC / Fold change vs veh, TFRC / RFU, ZDHHC17 / Fold change vs veh, ZDHHC17 / RFU, NOM1 / Fold change vs veh, NOM1 / RFU, ARL8B / Fold change vs veh, ARL8B / RFU, ZBTB11 / Fold change vs veh, ZBTB11 / RFU, TAMM41 / Fold change vs veh, TAMM41 / RFU, KIAA1704 /// LOC100996395 / Fold change vs veh, KIAA1704 /// LOC100996395 / RFU, ING1 / Fold change vs veh, ING1 / RFU, TRMT61B / Fold change vs veh, TRMT61B / RFU, FUBP3 / Fold change vs veh, FUBP3 / RFU, TP53 / Fold change vs veh, TP53 / RFU, TNKS2 / Fold change vs veh, TNKS2 / RFU, ZFP14 / Fold change vs veh, ZFP14 / RFU, ACTR2 / Fold change vs veh, ACTR2 / RFU, PPP3R1 / Fold change vs veh, PPP3R1 / RFU, PIK3R1 / Fold change vs veh, PIK3R1 / RFU, HNRNPA1 / Fold change vs veh, HNRNPA1 / RFU, RNF170 / Fold change vs veh, RNF170 / RFU, ZNF28 / Fold change vs veh, ZNF28 / RFU, RNGTT / Fold change vs veh, RNGTT / RFU, OGT / Fold change vs veh, OGT / RFU, BRD1 / Fold change vs veh, BRD1 / RFU, MARS / Fold change vs veh, MARS / RFU, ZNF655 / Fold change vs veh, ZNF655 / RFU, FAHD1 / Fold change vs veh, FAHD1 / RFU, BDP1 / Fold change vs veh, BDP1 / RFU, LRRCC1 / Fold change vs veh, LRRCC1 / RFU, ARID1A / Fold change vs veh, ARID1A / RFU, ZNF146 / Fold change vs veh, ZNF146 / RFU, ZNF330 / Fold change vs veh, ZNF330 / RFU, GPN3 / Fold change vs veh, GPN3 / RFU, C9orf123 / Fold change vs veh, C9orf123 / RFU, N4BP2L2 / Fold change vs veh, N4BP2L2 / RFU, ARFIP1 / Fold change vs veh, ARFIP1 / RFU, FAM179B / Fold change vs veh, FAM179B / RFU, BCL10 / Fold change vs veh, BCL10 / RFU, UHRF1BP1L / Fold change vs veh, UHRF1BP1L / RFU, BET1 / Fold change vs veh, BET1 / RFU, CNOT2 / Fold change vs veh, CNOT2 / RFU, ZNF268 / Fold change vs veh, ZNF268 / Fold change vs veh, ZNF507 / RFU, DGCR2 / Fold change vs veh, DGCR2 / RFU, WDSUB1 / Fold change vs veh, WDSUB1 / Fold change vs veh, HSP90B1 /// MIR3652 / RFU, ADSS / Fold change vs veh, ADSS / RFU, GK / Fold change vs veh, GK / RFU, ZNF148 / Fold change vs veh, ZNF148 / RFU, TAF9 / Fold change vs veh, TAF9 / RFU, SLC1A5 / Fold change vs veh, SLC1A5 / RFU, SLMO2 / Fold change vs veh, SLMO2 / RFU, ABCC4 / Fold change vs veh, ABCC4 / RFU, LOC101060439 /// RAP1B / Fold change vs veh, LOC101060439 /// RAP1B / RFU, RFX7 / Fold change vs veh, RFX7 / RFU, GTPBP10 / Fold change vs veh, GTPBP10 / RFU, CNEP1R1 / Fold change vs veh, CNEP1R1 / RFU, BIVM-ERCC5 /// ERCC5 / Fold change vs veh, BIVM-ERCC5 /// ERCC5 / RFU, ILF3 / Fold change vs veh, ILF3 / RFU 11762660_at / Fold change /veh 11762660_at / RFU VCAN (11757783_s_at) / Fold change /veh VCAN (11757783_s_at) / RFU DDX43 (11728927_at) / Fold change /veh DDX43 (11728927_at) / RFU KRT8 (11758188_x_at) / Fold change /veh KRT8 (11758188_x_at) / RFU NKD1 (11759106_at) / Fold change /veh NKD1 (11759106_at) / RFU SRD5A1 (11742802_a_at) / Fold change /veh SRD5A1 (11742802_a_at) / RFU TPSAB1 /// TPSB2 (11721975_s_at) / Fold change /veh TPSAB1 /// TPSB2 (11721975_s_at) / RFU GSTM3 (11746129_a_at) / Fold change /veh GSTM3 (11746129_a_at) / RFU IL23R (11737362_x_at) / Fold change /veh IL23R (11737362_x_at) / RFU TMEM51 (11727254_a_at) / Fold change /veh TMEM51 (11727254_a_at) / RFU PIWIL2 (11732686_x_at) / Fold change /veh PIWIL2 (11732686_x_at) / RFU ORM1 (11744905_x_at) / Fold change /veh ORM1 (11744905_x_at) / RFU CCDC152 (11743942_at) / Fold change /veh CCDC152 (11743942_at) / RFU ECM1 (11717891_a_at) / Fold change /veh ECM1 (11717891_a_at) / RFU IL23R (11748794_a_at) / Fold change /veh IL23R (11748794_a_at) / RFU TNFAIP8L3 (11732012_x_at) / Fold change /veh TNFAIP8L3 (11732012_x_at) / RFU MBOAT4 (11741988_at) / Fold change /veh MBOAT4 (11741988_at) / RFU 11764193_at / Fold change /veh 11764193_at / RFU TMEM53 (11763286_at) / Fold change /veh TMEM53 (11763286_at) / RFU MAGEB2 (11727129_at) / Fold change /veh MAGEB2 (11727129_at) / RFU TMEM200A (11744735_a_at) / Fold change /veh TMEM200A (11744735_a_at) / RFU CCDC152 (11751479_a_at) / Fold change /veh CCDC152 (11751479_a_at) / RFU FAM211A (11726209_a_at) / Fold change /veh FAM211A (11726209_a_at) / RFU RGS16 (11746705_a_at) / Fold change /veh RGS16 (11746705_a_at) / RFU VCAN (11755009_s_at) / Fold change /veh VCAN (11755009_s_at) / RFU RHOB (11743442_s_at) / Fold change /veh RHOB (11743442_s_at) / RFU RGS16 (11720943_a_at) / Fold change /veh RGS16 (11720943_a_at) / RFU RGS16 (11720944_at) / Fold change /veh RGS16 (11720944_at) / RFU, VPS4B / Fold change vs veh, VPS4B / RFU, CREB1 / Fold change vs veh, CREB1 / RFU, DNAJC13 / Fold change vs veh, DNAJC13 / RFU, GNAQ / Fold change vs veh, GNAQ / RFU, CDK5R1 / Fold change vs veh, CDK5R1 / RFU, ZRANB3 / Fold change vs veh, ZRANB3 / RFU, CUL4A / Fold change vs veh, CUL4A / RFU, CCNY / Fold change vs veh, CCNY / RFU, UFL1 / Fold change vs veh, UFL1 / RFU, COG3 / Fold change vs veh, COG3 / RFU, DIAPH2 / Fold change vs veh, DIAPH2 / RFU, SKA2 / Fold change vs veh, SKA2 / RFU, AFF3 / Fold change vs veh, AFF3 / RFU, LMF1 / Fold change vs veh, LMF1 / RFU, IPO11 / Fold change vs veh, IPO11 / RFU, DFFB / Fold change vs veh, DFFB / RFU, FOXP1 / Fold change vs veh, FOXP1 / RFU, CARD8 / Fold change vs veh, CARD8 / RFU, STRN3 / Fold change vs veh, STRN3 / RFU, ADK / Fold change vs veh, ADK / RFU, RASSF2 / Fold change vs veh, RASSF2 / RFU, WIPF1 / Fold change vs veh, WIPF1 / RFU, LARP1B / Fold change vs veh, LARP1B / RFU, RASA1 / Fold change vs veh, RASA1 / RFU, RB1 / Fold change vs veh, RB1 / RFU, PPFIA1 / Fold change vs veh, PPFIA1 / RFU, MAT2A / Fold change vs veh, MAT2A / RFU, CCT5 / Fold change vs veh, CCT5 / RFU, WDR92 / Fold change vs veh, WDR92 / RFU, CUX1 / Fold change vs veh, CUX1 / RFU, TTC7A / Fold change vs veh, TTC7A / RFU, TMEM135 / Fold change vs veh, TMEM135 / RFU, DEPTOR / Fold change vs veh, DEPTOR / RFU, CPM / Fold change vs veh, CPM / RFU, DNAJB6 / Fold change vs veh, DNAJB6 / RFU, CACNA2D3 / Fold change vs veh, CACNA2D3 / RFU, DTX4 / Fold change vs veh, DTX4 / RFU, TFCP2 / Fold change vs veh, TFCP2 / RFU, GMCL1 /// GMCL1P1 / Fold change vs veh, GMCL1 /// GMCL1P1 / RFU, AEBP2 / Fold change vs veh, AEBP2 / RFU, SNHG1 /// SNORD22 /// SNORD25 /// SNORD26 /// SNORD27 /// SNORD28 /// SNORD29 /// SNORD31 / Fold change vs veh, SNHG1 /// SNORD22 /// SNORD25 /// SNORD26 /// SNORD27 /// SNORD28 /// SNORD29 /// SNORD31 / Fold change (Aza/veh), C12orf56 (ProbeSet 11735607_a_at) / Fold change (ACY-1035/veh), C12orf56 (ProbeSet 11735607_a_at) / Fold change (Aza/veh), FGFR1OP (ProbeSet 11751329_s_at) / Fold change (ACY-1035/veh), FGFR1OP (ProbeSet 11751329_s_at) / Fold change (Aza/veh), VPS36 (ProbeSet 11739960_a_at) / Fold change (ACY-1035/veh), VPS36 (ProbeSet 11739960_a_at) / RFU SYPL1 (11715823_x_at) / Fold change /veh SYPL1 (11715823_x_at) / RFU IGFBP7 (11715501_s_at) / Fold change /veh IGFBP7 (11715501_s_at) / RFU REEP3 (11722064_at) / Fold change /veh REEP3 (11722064_at) / RFU IGLL1 (11728026_x_at) / Fold change /veh IGLL1 (11728026_x_at): dose or concentration left out as unconfirmed. To be noted: MV-4-11 cells, 48 hours.

As to `Nc1ccc(-c2cccs2)cc1NC(=O)c1ccc2c(c1)cc(C1CC1)n2CCN1CCOCC1` [ACY-1035], the “Fold change /veh CD79A (11719716_a_at)” value came to 1.12.
